Here are results for three compounds from patent publication US9156796B2, “Benzoimidazole-carboxylic acid amide derivatives as APJ receptor modulators” (SANOFI, priority 2013, dated 2015).

This experiment concerns the target T1, human apelin receptor (Homo sapiens, UniProt P35414).
T1 construct: expressed in transfected cells
T1 sequence (P35414 1-380): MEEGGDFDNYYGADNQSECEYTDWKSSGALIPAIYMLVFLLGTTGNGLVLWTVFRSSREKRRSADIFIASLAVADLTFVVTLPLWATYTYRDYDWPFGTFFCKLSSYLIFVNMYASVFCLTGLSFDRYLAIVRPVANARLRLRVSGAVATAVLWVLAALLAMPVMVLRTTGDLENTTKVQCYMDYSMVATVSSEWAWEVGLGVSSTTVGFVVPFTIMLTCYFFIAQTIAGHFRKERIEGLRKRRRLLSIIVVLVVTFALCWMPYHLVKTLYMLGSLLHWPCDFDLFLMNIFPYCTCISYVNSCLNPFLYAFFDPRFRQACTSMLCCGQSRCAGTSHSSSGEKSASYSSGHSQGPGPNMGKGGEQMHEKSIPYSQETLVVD
Nature of the experiment: Determination of agonism on the human apelin receptor by a calcium fluorescence assay (FLIPR). The class given is cell-based. As to conditions: HEK293 cells stably transfected with human apelin receptor and Giaq protein, Fluo-4 calcium fluorescence, read-out: EC50 (APJ agonism). A digest of the protocol:
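Agonist EC50s come from peak intracellular calcium transients recorded by FLIPR Tetra, scaled to the 1 μM apelin-13 maximum per plate. Test system: HEK293 stably transfected with human apelin receptor plus Giaq, Fluo-4-loaded (4 μM, 1 h, 37 °C, pH 7.4 buffer with probenecid); ≥7 concentrations, triplicates.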

On to `CCC(CC)n1c(Cc2cccs2)nc2cc(C(=O)N[C@@H](CC(C)C)C(=O)NCC3CCN(CCOC)C3)ccc21` (stereo partly drawn) [Example 305, 1-(1-Ethyl-propyl)-2-thiophen-2-ylmethyl-1H-benzoimidazole-5-carboxylic acid ((S)-1-{[1-(2-methoxy-ethyl)-pyrrolidin-3-ylmethyl]-carbamoyl}-3-methyl-butyl)-amide], for which the EC50 was found to be 0.319 µM.
As for `CCC(CC)n1c(Cc2cccs2)nc2cc(C(=O)N[C@@H](CC(C)C)C(=O)N(C)Cc3ccccc3OC)ccc21` [Example 256, 1-(1-Ethyl-propyl)-2-thiophen-2-ylmethyl-1H-benzoimidazole-5-carboxylic acid {(S)-1-[(2-methoxy-benzyl)-methyl-carbamoyl]-3-methyl-butyl}-amide], the EC50 came to 5.92 µM.
Then `CCC(CC)n1c(Cc2cccs2)nc2cc(C(=O)N[C@@H](CC(C)C)C(=O)Nc3ccc(OC)cc3)ccc21` [Example 265, 1-(1-Ethyl-propyl)-2-thiophen-2-ylmethyl-1H-benzoimidazole-5-carboxylic acid [(S)-1-(4-methoxy-phenylcarbamoyl)-3-methyl-butyl]-amide], with 8.66 µM.

In general, EC50 refers to the concentration needed to bring the measured effect to its halfway point.
